The subject of this data set is sphingolipids in tumor and serum. Briefly: Lipidomics (LC-MS3) of sphingolipids in tumors and serum of treated tumor-bearing mice. The data set is classed as in vivo. The following applies: generally. Here is the method:
To explore how PhotoImmunoNanoTherapy could be regulating the immune system, an analysis of the “sphingolipidome” was studied in tumors and serum collected from treated tumor-bearing mice. As PhotoImmunoNanoTherapy modulated the immune system, and was efficacious in both athymic nude mice and BALB/cJ mice, in depth “sphingolipidomic” studies were performed in athymic nude mice bearing MDA-MB-231 tumors to focus more precisely on mediation of T-cell-independent immunity as well as BALB/cJ mice bearing 410.4 tumors (FIG. 5A-F). […] Intriguingly, an increase in tumor S1P was observed as a function of PhotoImmunoNanoTherapy in both models (FIG. 5D), as well as an increase in the precursor sphingosine in the athymic nude mouse model (MDA-MB-231 tumor) (FIG. 5C). […] Of particular interest, the mass levels of phosphorylated sphingolipid species were much higher in serum than in tumor tissue possibly reflective of a release of phosphorylated sphingolipids in response to PhotoImmunoNanoTherapy. Intriguingly, the increase in the amount of dhS1P was more dramatic than the increase in S1P. In the MDA-MB-231, BxPC-3, and SAOS-2-LM7 models there were a 65%, 79%, and 43% increase in dhS1P, respectively, and these compared with respective increases in S1P of only 29%, 27%, and 10%. […]

Structures are written as SMILES.

Take `CCCCCCCCCCCCCCC[C@@H](O)[C@@H](N)COP(=O)(O)O` [dhS1P, dihydrosphingosine-1-phosphate]: the “Serum levels measured in the experiments” value was “around 0.005 mg/kg”.

These data come from patent US20160206633A1, “dhS1P AND USE OF SAME AS AN ANTICANCER THERAPEUTIC AND IMMUNOMODULATOR” (Penn State Research Foundation, Inc., priority 2013, published 2016).
